Measurements as given in US5690954A, “Enhanced uptake drug delivery system having microspheres containing an active drug and a bioavailability improving material” (priority 1987, dated 1997).
Like-named read-outs stand apart in the source and are kept apart here.

Experiments:
[1] = Maximum loading capacity of albumin microspheres; format: physicochemical; conditions: emulsion technique
Experimental: The active agent can be incorporated into the microspheres during their formulation or sorbed into/onto the system after preparation.
Albumin microspheres were prepared as described above by an emulsion technique with a stirring speed of 900 rpm and the model drug dissolved in the albumin solution at various concentrations.
Concentrations of 0.5, 2, 4 and 5% w/v Rose bengal were used. […] Due to the solution characteristics of sodium cromoglycate in water the highest concentration that could be used was […]. Thus, microspheres were manufactured from solutions containing 0.5, 1, 2 and 4% w/v sodium cromoglycate.

[2] = Zn-/Na-insulin nasal in rabbits, plasma glucose; format: in vivo, New Zealand White rabbits; conditions: rabbit; for shape of plasma glucose curves versus s.c.: intranasal microspheres and LPC 2.5 IU/kg versus 0.6 IU/kg s.c.; for plasma glucose levels: intranasal microspheres and LPC, 2.5 IU/kg; for plasma glucose levels versus simple insulin solution: intranasal solution with 0.2% LPC, about 2.3 IU/kg
Experimental: Preparations of Zn-insulin (mainly hexamer form) or Na-insulin (mainly monomer/dimer forms) were administered nasally to rabbits either as free insulin or as a microsphere delivery system with lysophosphatidylcholine (LPC) as a bioavailability increasing material. The experiments were performed in replicate (n=4).
Non-fasted New Zealand White female rabbits of average weight 3.5 kg were used in this study.
A 40 IU/ml Zn- or Na-human insulin solution was prepared in buffer (1/75M Na2 HPO4) of pH 7.3-7.4. In some experiments 0.2% LPC was added.
A total of 200 μl of the solution (100 μl in each nostril) was administered intranasally equivalent to about 2.3 IU/kg using an Eppendorf pipette.
The rabbits were dosed s.c. with insulin at 0.8 IU/kg or 0.6 IU/kg from a 14 IU/ml or 10 IU/ml aqueous solution, respectively.
The dose of starch microspheres and insulin was fixed at 2.5 mg/kg and 2.5 IU/kg, respectively. The dose of LPC was 0.2 mg/kg. The average weight of the rabbits was 3.5 kg.
25 mg of microspheres were placed in a small glass vial and 250 μl of a 100 IU/ml insulin solution (Na- or Zn-insulin) was added followed by the 2 mg LPC and 250 μl of distilled water. The microspheres were then allowed to stand for 2 h at room temperature in contact with the insulin solution before freeze drying.
Approximately 15 mg of the freeze dried powder from each individual vial was filled into the applicator tubing, and this was stored in a dessicator until use.
Each rabbit was held on its back during, and for 10 second after, the application to ensure the delivery of the powdered formulation. Blood samples of 200 μl and 2 ml for glucose and insulin determination, respectively, were collected from the marginal ear vein at 10 and 5 min prior to the administration and at 5, 15, 30, 45, 60, 90, 120 and 180 min post-administration. […] The blood samples for glucose analysis were kept on crushed ice awaiting immediate analysis.

[3] = hGH nasal, in situ rat model (ELISA); format: in vivo, male Wistar rats
Experimental: For all experiments biosynthetic hGH was used.
As before the experiments were performed using the rat in situ model described by Hirai and modified by Fisher.
Non-fasted male Wistar rats of about 200 g were divided into groups of 4 and anaesthetized using an i.p. injection of 0.35 ml of pentobarbitone (60 mg/ml).
Three different hGH preparations were administered to the rats namely a 10 mg/ml solution of hGH in potassium phosphate buffer (1/75M), pH=7.2, as before with the addition of 0.05% LPC and as before with the addition of 0.5% LPC.
20 μl (1 mg/kg) of either of the three preparations were administered intranasally by means of a plastic tubing.
All experiments were performed in replicate. Blood samples, 20 drops were collected and kept on ice at times 0, 5, 10, 20, 30, 40, 50, 60, 90, 120, 180, 240 and 300 min after the application. The plasma was separated and stored at -20° C. until analysis.

[4] = Bioavailability enhancement by microspheres plus bioavailability increasing material (general statement)
Source text: The material selected for these studies has been lysophosphatidylcholine (described above).

[5] = in vivo
[6] = intranasal, simple solution, versus intravenous; cited from earlier work
[7] = cited from earlier work
[8] = Zn-human insulin nasal, in situ rat model, plasma glucose; format: in vivo, male Wistar rats
Experimental: The Hirai's in situ model (as modified by Fisher) was used to study the nasal absorption of insulin using non-diabetic male Wistar Rats of 150 g fasted overnight. The rats were anaesthetized with an i.p. injection of 0.25 ml of Pentobarbitone (60 mg/ml).
A 250 IV/ml solution of Zinc (Zn)-human insulin was prepared in buffer (1/75M Na2 HPO4)) of pH 7.3. In some experiments 0.2% of LPC or for comparison 1% Glycodeoxycholate (GDC) were added to the preparation as absorption enhancers. The experiments were performed in replicate (n=4). 10 μl was administered into the nasal cavity equivalent to 16.67 IV/kg (2.5 IV/rat). Blood samples (0.2 ml) were collected into 5 ml fluoride oxalate tubes at 10, 6 and 2 min pre-administration and at 5, 10, 20, 40, 60, 90, 120, 180, 240 and 300 min post-administration. The blood was replaced by saline administered through the jugular vein.

[9] = nasal, cited from earlier work
[10] = sheep, in vivo, 5 mg/kg
Experimental: Cross-bred (Suffolk and Texel) sheep were divided into groups of 3 and 2. The mean weight of the sheep was about 40 kg.
The animals were not fasted prior to the administration of gentamicin. […] The catheter was removed upon completion of the study. […] The sedation lasted about 3 minutes. The animals that received gentamicin by the IV route were also sedated.
The first group of sheep (n=2) was given 0.25 ml of gentamicin solution (386 mg/ml) (5.0 mg/kg) into each nostril. The second group (n=3) received 0.25 ml of gentamicin solution (386 mg/ml) (5.0 mg/kg) containing 2 mg/ml LPC into each nostril. The third group (n=3) received 5.0 mg/kg gentamicin and 0.2 mg/kg LPC in combination with starch microspheres (1.9 mg gentamicin-/mg starch microspheres). The last group of sheep (n=3) was given 2 mg/kg gentamicin administered intravenously as a solution (40 mg/ml) through the jugular vein. Blood samples (2 ml) were collected through the jugular vein at 0, 8, 16, 24, 32, 45, 60, 90, 120, 180 and 240 min after drug administration. The serum was separated by centrifugation and the samples stored at -20° C. awaiting analysis. No heparin was added to any of the samples. The gentamicin level was determined by the EMIT technique (16).

[11] = set-up: species or system Male Wistar rats; conditions: rat, in vivo
Experimental: The in situ rat model of Hirai et al (14) was used as modified by Fisher et al (15). Male Wistar rats of about 200 g were anaesthetized by intraperitoneal injection of 60 mg/kg of Pentobarbitone (Sagatal, 60 mg/ml). The rats were tracheotomized, the oesophagus sealed and the carotid artery cannulated.
A volume of the gentamicin solution containing 0.5% of the drug with and without added lysophosphatidylcholine (LPC) (0.2%) was instilled into the nasal cavity. Blood samples were withdrawn from the carotid artery at 0, 5, 10, 15, 30, 45, 60 and 120 min after drug administration. The gentamicin level was determined by the EMIT method (16).

[12] = cited from earlier work; remark: listed apart in the source
[13] = intranasal solution without enhancer, 1 mg/kg
[14] = microspheres with lysophosphatidylcholine

## O=C([O-])c1c(Cl)c(Cl)c(Cl)c(Cl)c1-c1c2cc(I)c(=O)c(I)c-2oc2c(I)c([O-])c(I)cc12.[Na+].[Na+] [Rose bengal]
[1]
  maximum loading capacity: 170 μg per mg albumin microspheres

## Na-insulin: Na-insulin (mainly monomer/dimer forms)
[2]
  shape of plasma glucose curves versus s.c.: surprisingly similar to the ones obtained for the s.c. administration
  plasma glucose levels: even more drastic decreases
  plasma glucose levels versus simple insulin solution: lowered significantly

## hGH: biosynthetic hGH
[3]; [13]
  nasal absorption: not absorbed at any significant degree
  plasma level peak: about 3.5 ng/ml
[3]; intranasal with 0.05% LPC
  effect of 0.05% LPC on absorption: no effect
[3]; intranasal with 0.5% LPC
  AUC: very significant increase
[3]; intranasal with 0.5% LPC, 1 mg/kg
  plasma level peak: about 57 ng/ml
[4]; [14]
  enhancement concept, outcome: successful
[5]
  bioavailability versus subcutaneous injection: about 20%
  plasma level with microspheres and LPC: increased considerably
[5]; sc
  shape of profile: flatter profile

## calcitonin: calcitonin [reference compound]
[4]; [14]
  enhancement concept, outcome: successful

## CC(C)NC[C@H](O)COc1cccc2ccccc12 (racemic) [propanolol]
[6]
  plasma levels: identical to intravenous administration

## NC(=O)CC[C@@H]1NC(=O)[C@H](Cc2ccccc2)NC(=O)[C@H](Cc2ccc(O)cc2)NC(=O)CCSSC[C@@H](C(=O)N2CCC[C@H]2C(=O)N[C@H](CCCN=C(N)N)C(=O)NCC(N)=O)NC(=O)[C@H](CC(N)=O)NC1=O [DDVAP, reference compound]
[4]; in vivo
  enhancement concept, outcome: successful

## CC(=O)[C@H]1CC[C@H]2[C@@H]3CCC4=CC(=O)CC[C@]4(C)[C@H]3CC[C@]12C [progesterone]
[7]; nasal route
  time of peak concentration: approximately 6 minutes
[7]; oral route, compared to IV administration
  bioavailability, oral: ~1.2%
[7]; oral route
  effectiveness, oral: largely ineffective

## Zn-insulin: Zn-insulin (mainly hexamer form)
[2]
  shape of plasma glucose curves versus s.c.: surprisingly similar to the ones obtained for the s.c. administration
  plasma glucose levels: even more drastic decreases
  plasma glucose levels versus simple insulin solution: lowered significantly
[8]; intranasal simple solution
  lowering of plasma glucose level: not effective
[8]; intranasal, with 0.2% LPC
  plasma glucose level: fast and significant drop

## salmon calcitonin
[9]; in combination with a surfactant
  plasma calcitonin increase: significant increase
[9]; with surfactant enhancer
  AUC increase: 10 fold
[9]; without enhancer
  plasma calcitonin: only trace amounts

## O=C(O)c1cc(=O)c2c(OCC(O)COc3cccc4oc(C(=O)O)cc(=O)c34)cccc2o1 [sodium cromoglycate]
[1]
  maximum loading capacity: 137 μg per mg albumin microspheres

## gentamicin
[10]
  bioavailability versus IV dose: 57.3%
  peak blood level: 0.4 µg/mL
[4]; in vivo
  enhancement concept, outcome: successful
[11]
  bioavailability: poor bioavailability
  peak level relative to solution alone: five fold greater
[12]; into the nose, without enhancer
  nasal absorption: poorly absorbed
[12]; nasal, added bile salts
  biological availability with bile salts: enhanced

B1: CCK: CCK (peptide, UniProt P06307 21-115, looked up)
Cholecystokinin: QPVPPADPAGSGLQRAEEAPRRQLRVSQRTDGESRAHLGALLARYIQQARKAPSGRMSIVKNLQNLDPSHRISDRDYMGWMDFGRRSAEEYEYPS
[4]; [14]
  enhancement concept, outcome: successful
